# Results reported in paper PMC5751115, “Screening In Vitro Targets Related to Diabetes in Herbal Extracts from Peru: Identification of Active Compounds in Hypericum laricifolium Juss. by Offline High-Performance Liquid Chromatography” (International Journal of Molecular Sciences, 2017).
# Legend:
# [1] = molecular target: rat lens aldose reductase (RLAR) (Rattus norvegicus, UniProt P07943); experiment: Rat lens aldose reductase (RLAR) assay; type: biochemical; settings: for AR IC50 (μM) / IC50: Table 3, isolated compounds, means ± SD (n = 3), NA is not active; for IC50: read-out: AR IC50
# Protocol: The rat lenses (RL) were prepared as follows: the RL were removed from the eyes from 10-week-old Sprague-Dawley rats (weight = 250–280 g) and frozen until required. The rats were housed in a standardized laboratory environment with a 12 h light/12 h dark cycle at constant room temperature (22 ± 1 °C) and humidity (6 ± 5%) before experimentation. All animals had free access to water and food.
# The AR inhibitory activities were evaluated using RLAR. Prior to analysis, the lenses were homogenized in 0.1 M phosphate buffer saline (pH 6.2) and subsequently centrifuged at 10,000× g for 30 min at 4 °C. The rat lens aldose reductase (RLAR)-containing supernatant was then collected. A substrate comprising 531 μL 0.1 M potassium buffer (pH 7.0), 90 μL NADPH solution (1.6 mM in potassium buffer), 90 μL RLAR homogenate (6.5 U/mg), 90 μL ammonium sulfate solution (4 M in potassium buffer), and 90 μL DL-glyceraldehyde (25 mM in potassium buffer) was placed into a 1.0-mL cuvette and mixed with 9 μL sample (1 mg/mL dissolved in DMSO). RLAR activity was assessed spectrophotometrically by measuring the decrease in NADPH absorption at 340 nm over a 4 min period.
# [2] = ABTS free radical scavenging assay; settings: for Antioxidants ABTS IC50 (μM) / IC50: Table 3, isolated compounds, NA is not active; for IC50: read-out: Antioxidants ABTS IC50
# Protocol: The ABTS free radical scavenging activity was determined using ABTS radical cations (ABTS^+) with slight modifications [34]. Briefly, potassium persulfate (3.5 mM) and ABTS diammonium salt (2.0 mM) were mixed, diluted in distilled water, and subsequently allowed to stand in the dark at room temperature for 24 h before use, to allow free radical generation. To determine the scavenging activity, the absorbance was recorded at 750 nm using an EL-800 Universal microplate reader (BioTek Instrument Inc., Winooski, VT, USA) after incubating the sample solutions (10 µL, 1 mg/mL, 0.5 mg/mL in methanol) with ABTS solution (290 µL) for 10 min in a 96-well plate. Trolox was used as a positive control.
# [3] = DPPH free radical scavenging assay; settings: for Antioxidants DPPH IC50 (μM) / IC50: Table 3, isolated compounds, NA is not active; for IC50: read-out: Antioxidants DPPH IC50
# Protocol: The DPPH free radical scavenging activity was determined as previously described with slight modifications. […] After 15 min incubation in the darkroom, the absorbance change at 570 nm was measured on a microplate reader (EL800 Universal Microplate reader, BioTek Instruments, Winooski, VT, USA). L-Ascorbic acid was used as positive control.
# [4] = molecular target: T1, Human recombinant AR (HRAR) (Homo sapiens, UniProt P15121); experiment: HRAR ultrafiltration-HPLC assay; type: binding; settings: peak in HL 70% MeOH extract 0.1 mg/mL; HRAR 3.9 μM
# T1 construct: purchased Wako Pure Chemical Industries Co. (Osaka, Japan)
# Protocol: The AR Inhibitors (ARIs) present in HL were profiled using a newly developed AR ultrafiltration assay. Specifically, the HL sample (final concentration = 0.1 mg/mL) was incubated with 0.6 M ammonium sulfate and 3.9 μM HRAR (Human recombinant AR) in a total volume of 300 μL at 37 °C for 30 min. The incubated mixture was then filtered by centrifugation at 5167× g for 30 min at room temperature using a Microcon YM-10 centrifugal filter unit. The filtrate was subsequently analyzed by HPLC (Section 3.9). The sample incubated without HRAR was used as control.
# α-glucosidase [5] = experiment: α-Glucosidase inhibitory assay; type: biochemical
# Protocol: α-Glucosidase inhibitory activity was determined using a previously reported method with slight modifications. The initial concentration of the enzyme solution was 0.015 mg/mL in 0.1 M phosphate buffer (pH 6.9) and the initial concentration of the substrate solution was 1 mM in the same phosphate buffer. The enzyme solution was mixed in a clear 96-well microplate (flat bottom) and the reaction was initiated by the addition of the substrate to the solution. The plates were incubated at 37 °C for 10 min.
# [6] = Offline DPPH-HPLC analysis; settings: peak area reduction in HL 70% MeOH extract after DPPH
# Protocol: The DPPH radical assay was modified by an offline DPPH-HPLC assay. […] After incubation (15 min) in the dark room, the mixture was filtered through a 0.45-μm membrane and subsequently analyzed by HPLC (Section 3.9). The sample incubated with methanol was used as control. The decreases in peak area were expressed as the % quantitative reduction (% QR), calculated from the equation: % QR = (A − B)/A × 100%, where A and B are the HPLC peak areas of the compound incubated without and with the DPPH methanol solution, respectively.
# [7] = Offline ABTS-HPLC analysis; settings: peak area reduction in HL 70% MeOH extract after ABTS
# Protocol: Offline ABTS-HPLC was investigated by modifying a previously reported protocol. Briefly, 10 μL of 70% methanol extract from HL (20 mg/mL) was mixed with 140 μL ABTS solution that was prepared one day in advance. The mixture was then incubated at room temperature for 10 min and subsequently filtered through a 0.45 μm filter. The filtrate was analyzed by HPLC (Section 3.9). The methanol extract of HL (20 mg/mL in MeOH was used as control. The detector monitored the eluent at a wavelength of 300 nm and the % QR was calculated as described in Section 3.11.
# α-glucosidase [8] = experiment: α-Glucosidase ultrafiltration-HPLC assay; type: binding; settings: peak in HL 70% MeOH extract 0.1 mg/mL; α-glucosidase 3.9 μM
# Protocol: The α-glucosidase present in the HL was profiled using a newly developed α-glucosidase ultrafiltration assay. Specifically, the HL 30 μL sample (final concentration = 0.1 mg/mL) was incubated with α-glucosidase (3.9 μM) in PBS (300 μL, pH 7.0) at 37 °C for 30 min. The incubated mixture was then filtered by centrifugation at 5167× g for 30 min at room temperature using a Microcon YM-10 centrifugal filter unit (Millipore, Bedford, MA, USA). The filtrate was subsequently analyzed by HPLC on a Dionex system (Dionex, Sunnyvale, CA, USA) consisting of a P850 pump, an ASI-100 automated sample injector, a Synergi Hydro-RP 80A column (150 mm × 4.6 mm, 4 μm; Phenomenex, Torrance, CA, USA) maintained at 30 °C, and a UVD170S detector. The injection volume was 10 μL and the flow rate of the mobile phase was 0.7 mL/min. The mobile phase compositions were as follows: 0.1% trifluoroacetic acid (A-line) and methanol (B-line). The gradient elution system was modified as follows: 0–35 min, starting with 5% B-line, programmed to reach 40% B-line at 15 min using a linear gradient, followed by 100% B-line from 15–35 min. The detector monitored the eluent at a wavelength of 254 nm. The sample incubated without α-glucosidase was used as control.
# [9] = means ± SD (n = 3), listed as Quercetin (7)
smiles,measurement,setting,value
"COc1cc(C(=O)O)ccc1O [Compound 4, vanillic acid]",AR IC50 (μM),[1],inactive
same,Antioxidants ABTS IC50 (μM),[2]; means ± SD (n = 3),inactive
same,Antioxidants DPPH IC50 (μM),[3]; means ± SD (n = 3),inactive
"O=c1c(O)c(-c2ccc(O)c(O)c2)oc2cc(O)cc(O)c12 [Quercetin, quercetin, reference compound]",inhibition at 10 µg/mL,[1]; read-out: AR Inhibition (%),83.7 ± 2.6%
"O=C1O[C@H]([C@@H](O)CO)C(O)=C1O [L-Ascorbic, L-ascorbic acid, reference compound]",DPPH Inhibition (%),"[3]; Table 2, L-ascorbic acid at 71 μg/mL",99.1 ± 0%
same,DPPH IC50,"[3]; Table 2, means ± SD (n = 3)",17.6 ± 0.1 mg/L
"O=C(O)[C@H]1O[C@@H](Oc2c(-c3ccc(O)cc3)oc3cc(O)cc(O)c3c2=O)[C@H](O)[C@@H](O)[C@@H]1O [Compound 6, kaempferol 3-O-glucuronide]",IC50,[1],6 ± 1.1 µM
same,IC50,[2]; means ± SD (n = 3),11 ± 0.2 µM
same,IC50,[3]; means ± SD (n = 3),58.8 ± 2.1 µM
same,"total binding degree (TBD), HRAR ultrafiltration-HPLC",[4],30%
"O=C(O)c1ccc(O)cc1 [Compound 2, p-hydroxybenzoic acid]",AR IC50 (μM),[1],inactive
same,Antioxidants ABTS IC50 (μM),[2]; means ± SD (n = 3),inactive
same,Antioxidants DPPH IC50 (μM),[3]; means ± SD (n = 3),inactive
"Cc1c(C)c2c(c(C)c1O)CCC(C)(C(=O)O)O2 (centres unmarked) [Trolox, 6-hydroxy-2,5,7,8-tetramethylchroman-2-carboxylic acid, reference compound]",ABTS IC50,"[2]; Table 2, means ± SD (n = 3)",4.6 ± 0.1 mg/L
same,ABTS Inhibition (%),"[2]; Table 2, trolox at 17 μg/mL",100 ± 0.1%
same,IC50,[2]; means ± SD (n = 3),18.8 ± 0.5 µM
"C[C@H]1O[C@H](O[C@H]2[C@H](O)[C@@H](O)[C@@H](O[C@H]3[C@H](O)[C@@H](O)C(O)O[C@@H]3CO)O[C@@H]2CO)[C@H](O)[C@@H](O)[C@@H]1N[C@H]1C=C(CO)[C@@H](O)[C@H](O)[C@H]1O (some centres unmarked) [Acarbose, acarbose, reference compound]",α-Glucosidase Inhibition (%),"α-glucosidase [5]; Table 2, 500 μg/mL",55.82 ± 2.3%
"O=c1c(O)c(-c2ccc(O)cc2)oc2cc(O)cc(O)c12 [Compound 8, kaempferol]",IC50,[1],9.7 ± 0.5 µM
same,IC50,[2]; means ± SD (n = 3),191.8 ± 1.1 µM
same,"% quantitative reduction (QR), offline DPPH-HPLC",[6],51%
same,"quantitative reduction percentage (QR), offline ABTS-HPLC",[7],54%
same,IC50,[3]; means ± SD (n = 3),326 ± 3.3 µM
same,"total binding degree (TBD), HRAR ultrafiltration-HPLC",[4],< 20%
"O=C(O)c1ccc(O)c(O)c1 [Compound 1, protocatechuic acid]",IC50,[1],16.9 ± 1.9 µM
same,IC50,[2]; means ± SD (n = 3),9.7 ± 0.9 µM
same,IC50,[3]; means ± SD (n = 3),263.4 ± 0.2 µM
"O=C(/C=C/c1ccc(O)c(O)c1)O[C@@H]1C[C@](O)(C(=O)O)C[C@@H](O)[C@H]1O [Compound 3, chlorogenic acid]",IC50,[1],0.23 µM
same,"total binding degree (TBD), HRAR ultrafiltration-HPLC",[4],~ 20%
"O=c1c(O)c(-c2ccc(O)c(O)c2)oc2cc(O)cc(O)c12 [Compound 7, quercetin]",α-glucosidase percentage inhibition,"α-glucosidase [5]; isolated compound, Figure 2, 50 μg/mL",91%
same,"total binding degree (TBD), α-glucosidase ultrafiltration-HPLC",α-glucosidase [8],61.57%
same,IC50,[2]; [9],0.33 ± 0.6 µM
same,"% quantitative reduction (QR), offline DPPH-HPLC",[6],42.8%
same,"quantitative reduction percentage (QR), offline ABTS-HPLC",[7],> 80%
same,IC50,[3]; [9],0.33 µM
"O=C(O)/C=C/c1ccc(O)c(O)c1 [Compound 5, caffeic acid]",IC50,[1],28.3 ± 0.9 µM
same,IC50,[2]; means ± SD (n = 3),7.2 ± 1.1 µM
same,"quantitative reduction percentage (QR), offline ABTS-HPLC",[7],76%
same,IC50,[3]; means ± SD (n = 3),47.2 ± 0.1 µM
